We go through four compounds from patent US10827753B2, “Compositions and methods for controlling nematodes” (Monsanto Technology LLC, priority 2007, dated 2020).

Series [1] has as its system Meloidogyne incognita. Nature of the series: Summer field evaluation of pre-plant incorporated compounds on squash. To be noted: for 0-3 vigor 16 DAP / 0-3 vigor 21 DAP / feeder root (3 = ave) 31 DAP / gall % 31 DAP / root wgt (g) 31 DAP / top wgt (lbs) 31 DAP / total fruit (lbs): 4 kg (kg/ha) PPI, squash. The series is classed as in vivo. In short, it runs like this:
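PPI simulation: compound in acetone/Triton X-100 and water mixed into 80% sand/20% silt loam with chopped galled tomato roots, filling top 15 cm of 6 replicate field plots. M. incognita eggs/larvae (100 k per plot) injected 5 cm deep; three-week-old squash cv. Liberator III planted 4 days after treatment.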

The next series deals with mice. To be noted: cited from earlier work.
Series [2] has as its system Meloidogyne incognita. In words: Fall nematicidal field testing on squash microplots. To be noted: squash. It counts as in vivo. The source says: The test site was located at 3511 Highway F in New Melle, Mo., Saint Charles county. The soil was a native prairie/pasture covering silty clay loam soil. Holes were dug using a Bobcat 763 skid loader with a 12-inch auger to a depth of 18 inches. Total volume of each hole was about 1.2 cubic feet. Six cubic yards of topsoil and 9 tons of river sand were purchased from Dardenne Farms Topsoil. Mixing to a ratio of 4 volumes sand to 1 volume soil was accomplished using a trailer-mounted 9 cubic foot concrete mixer. Holes were filled and then re-filled 5 days later after settling. The mixture was 92.5% sand, 2.5% silt, and 5% clay. Organic matter was 0.2% and pH was 6.8.
Treatments were arranged in a block design with the blocks laid out perpendicular to the primary slope and parallel to secondary slope. There are 7 inoculated controls and 5 non-inoculated controls and the distributions of disease severity appeared independent of location.
Application rates are expressed as kg of active material per hectare, and the mg per plot is based on the surface area of the bored and filled holes (0.000008559 Ha). The DC compounds were formulated immediately before application as follows: 1) the amount required to treat all six replicates was dissolved in 300 ml of acetone, 2) for each plot 50 ml of that solution was added to a graduated cylinder with 2 ml of 12.5% Triton X100 and the volume was raised to 500 ml with tap water. The resultant mix is the same as used in the standard greenhouse assays (10% acetone, 0.05%×100). The oxamyl treatments were prepared from Vydate 2 L formulated the same way. The 500 ml was placed in a watering can and the entire volume was evenly sprinkled over the surface of the plot. No runoff occurred and pooling, if any, was short lived. The final drench volume was 0.58 ml/cm^2, compared to 0.2 ml/cm^2 used in our greenhouse, however the microplots are much deeper so the drench volume applied per soil volume treated is roughly the same.
Meloidogyne incognita eggs were harvested over a two week period and stored at approximately 5° C. until needed. A stock of 5.6 million vermiform eggs was adjusted to 9000/ml in 620 ml. One day after treatment, two holes were made in each plot about 7 cm apart and equidistant from the squash plants. Five ml of egg suspension was pipetted into each hole, which was then sealed and the plot lightly watered. A total of 90,000 vermiform eggs were added to each plot.
The first root evaluation was at 28 DAT. The tops were cut off and weighed immediately in the field, and the roots were carefully dug out so as not to disturb the remaining plant.

The test system of series [3] is Heterodera glycines (SCN). Nature of the series: Seed treatment test of soybean cyst nematode on soybean plants. The series is classed as in vivo. To be noted: test b. As for the experimental part:
(§1) For a given concentration the chemical is dissolved in 500 ul of acetone and one gram of cucumber seed (RKN test) or soybean seed (SCN test) is added (e.g., 20 mg active ingredient in 500 ul acetone plus 1 gram of seed). The seed solutions are agitated until all seeds were thoroughly covered with the chemical solution. The acetone is then allowed to evaporate by air drying the seeds. The seeds are planted in 2-inch pots containing sandy soil and then the pots are inoculated with 1000 Meloidogyne incognita (RKN) or 1000 Heterodera glycines (SCN) eggs per pot three days after planting. Plants are rated for galling 14 days after egg inoculation for RKN or 28 days after egg inoculation for SCN.

For series [4], the system named is Meloidogyne incognita. Nature of the series: M. incognita miniaturized greenhouse assay on cucumber seedlings (root galling). It counts as in vivo. Details: key to 1 ppm gall ratings / 1 ppm gall rating: mean of 3 gall ratings: 0=0-5%, 1=6-20%, 2=21-50%, 3=51-100% root galled. In short, it runs like this:
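Compound in acetone/Triton X100 stock (5 mg/mL) diluted into water with 0.015% Triton X100 and applied to sand-planted sprouted cucumber seedlings; inoculated with 500 M. incognita eggs two days after planting. Roots harvested 10–12 days later; galling scored 0–3 by % root mass galled, averaged over triplicates, plus visual root phytotoxicity rating.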

Series [5] concerns sting (Belonolaimus longicaudatus) nematodes. In words: Sting nematode bench top soil assay. It counts as in vivo. As for the experimental part: Populations of sting (Belonolaimus longicaudatus) nematodes are maintained on St. Augustine turf grass on soil in 15-cm pots. At test initiation the turf is removed from the pots and the soil containing nematode eggs, juveniles, and adults is subdivided into pots each containing a volume of 125 cm^3′ The compounds to be tested are dissolved in 3 ml of acetone using 3, 6, or 15 mg to achieve equivalent surface area application rates of 2, 4, or 10 kg/ha, respectively. The 3 ml acetone stock solution is added to 30 ml of water, and 5 ml of that solution is used to drench each of 6 replicate test pots prepared as described above. The treated pots containing nematodes are incubated in the laboratory at ambient temperature of approximately 25° C. After 3 days the soil from each pot is washed onto a modified Baermann apparatus comprised of a screen supporting a layer of filter paper on which the soil sample is placed and set in a dish of water. The samples are then incubated at 25° C. for 24 hours to allow the live nematodes to migrate through the paper and screen and into a water reservoir to be collected for counting with a light microscope. Nematodes that have been killed or immobilized by the test compounds are not able to migrate into the reservoir.

Series [6] concerns CD-1/Swiss derived albino mice. It counts as in vivo. To be noted: 500 mg/kg oral, three female mice, observed up to 14 days. As for the experimental part: Acute oral toxicity testing was performed in mice in accordance with test method P203.UDP, as administered by Eurofins/Product Safety Laboratories (Dayton, N.J.). CD-1/Swiss derived albino mice were obtained and group housed in suspended solid bottom caging. The mice were fed rodent chow and filtered tap water was supplied ad libitum. Following acclimation to the laboratory setting, a group of animals was fasted overnight by removing food from the cages. After the fasting period, three female mice were selected based on vitality and initial body weights. The individual compound doses were calculated from these body weights.
The test substance was prepared as a 1% (50 mg/kg) or 5% (500 mg/kg) weight to weight (w/w) mixture in a 0.5% w/w solution of carboxymethylcellulose (CMC) in distilled water. A tissue homogenizer was used to create a homogeneous mixture. A dose of 50 or 500 mg/kg was administered to three healthy mice per dose level by oral intubation using a ball-tipped gavage needle attached to a syringe. After administration, the animals were returned to their cages, and feed was replaced immediately after dosing.
Body weights were recorded prior to initiation and on Days 7 and 14 or a soon as possible after death.

The subject of series [7] is Meloidogyne incognita (RKN). Nature of the series: Seed treatment test of root knot nematode on cucumber plants. It counts as in vivo. To be noted: 20 mg ai/gram seed, cucumber seeds. The procedure: as §1
In a further series the test system is root knot nematode. Nature of the series: Pre-plant incorporated (PPI) greenhouse test of root knot nematode on cucumber plants. To be noted: Meloidogyne incognita, fourteen day pre-plant incorporated, test b, read-out: percent control (galling reduction) relative to the control blank treatment; for pest or weed control at 4000 g/ha: 4 kg/ha rate; for pest or weed control at 8000 g/ha: 8 ka/ha rate. It counts as in vivo, Meloidogyne incognita. The source says: The PPI test examines the effect of pre-incorporation of compounds in soil and longer aging to simulate in furrow methods of nematicide application in the field. The PPI test exposes compounds to a higher volume of soil and drying which can result in more severe soil binding. Compounds are also aged for longer periods which can lead to more extensive biotic and abiotic degradation further limiting activity.
The chemically treated soil (sandy soil mix) for all treatment days (e.g., 7 days, 14 days, 21 days) treatments is potted into their appropriate pots. On the same day the 7 day treatment pots are seeded. One week later eggs are applied and 14 days after egg application the test is harvested. The 14 day treatments are planted 7 days after the first planting. The 14 day planting and 7 day inoculation happen on the same day. One week later the 14 day treatments are inoculated with eggs. These are harvested 14 days after the inoculation. The 21 day treatments are planted 14 days after the first planting. The 14 day inoculation and 21 day planting are done on the same day. One week later the 21 day plants are inoculated with eggs. The 7 day treatment is harvested the same day as the 21 day inoculation. Fourteen days after inoculation the 21 day plants are harvested.
For each compound a stock is prepared using 4 mg material in 4 ml of acetone. The soil is mixed by placing 80 ml of field soil and 320 ml of sand in a plastic bag and mixing well. The formulation for treatment is done by adding 2.13 ml (8 kg/ha rate), 1.06 ml (4 kg/ha rate) or 0.53 ml (2 kg/ha rate) to a vial and raising it with 10 ml in 0.05%×100. Soil is then treated by adding the entire 10 ml to the 400 ml of mix in the bag. The treated soil is immediately mixed well in the sealed bag to distribute the compound evenly. Approximately 95 ml is used to fill each 2-inch square pot up to the top with some soil compression and flattening. For each compound and for the control treatments 4 pots are filled. All pots are watered until moist but with no run-out through the bottom.
The PPI test simulates 8, 4 and 2 kg/ha rates incorporated 15 cm deep in the field and is equivalent to the 2, 1 and 0.5 kg/ha drench application rates in the standard 2-inch pot cucumber greenhouse assay.

Series [8] deals with caspase-3 in rat hepatoma derived H4IIE cells. In words: Caspase-3 activity (DEVD-AMC) after compound exposure in H4IIE cells. It counts as cell-based. To be noted: concentrations up to 300 μM. As for the experimental part: Caspase 3 cleaves the tetrapeptide between D and AMC, thus releasing the fluorogenic […] AMC. Following the test article exposure to cells in 96-well plates, medium was aspirated from plates and PBS added to each well. Plates were stored at −80° C. to lyse cells and store samples until further analysis. On the day of analysis, plates were removed from freezer and thawed. Caspase buffer with fluorescent substrate was added to each well and incubated at room temperature for one hour. AMC release was measured in a spectrofluorometer at an excitation wavelength of 360 nm and an emission wavelength of 460 nm. Values are expressed as relative fluorescent units (RFU).

SMILES strings stand for the structures. Marks after values point to notes of the source that are not given here.

`CNC(=O)O/N=C(\SC)C(=O)N(C)C` [Oxamyl, oxamyl, reference compound]: the “0-3 vigor 16 DAP” value with Meloidogyne incognita [1] came out at 2.7. Also, the “0-3 vigor 21 DAP” value in the series with Meloidogyne incognita [1] is reported as 2.5. Also, in the series on Meloidogyne incognita [1], the “feeder root (3 = ave) 31 DAP” value stood at 3.0. Further, the “gall % 31 DAP” value with Meloidogyne incognita [1] was found to be 85%. Besides, in the series on Meloidogyne incognita [1], the “root wgt (g) 31 DAP” value was determined as 37.0 g. Besides, the “top wgt (lbs) 31 DAP” value with Meloidogyne incognita [1] is 1.16 lbs. Besides, the “total fruit (lbs)” value with Meloidogyne incognita [1] worked out at 1.09 lbs. Also, in the series on mice, the “oral LD50 in mice” value is reported as 2.3 mg/kg. Further, the “RG28 = % root galls at 28 days after treatment” value in the series on Meloidogyne incognita [2] (2 kg ai/ha drench) is reported as 45.0%; with Meloidogyne incognita [2] (5 kg ai/ha drench), 10.5%. Further, the “RG43 = % root galls at 43 days after treatment” value in the series with Meloidogyne incognita [2] (2 kg ai/ha drench) amounted to 42.3%; in the series on Meloidogyne incognita [2] (5 kg ai/ha drench) it was 17.3%. Further, the “percent cyst reduction relative to control blank treatment” value is −4^b percent in [3] (0.375 mg al/gram seed) and 71^b percent in [3] (1.5 mg al/gram seed). Moreover, in the series on Meloidogyne incognita [4] (1 ppm (oxamyl standard of Table 1A), average of triplicate, scale 0-3), the gall ratings is given as 0.67 (1 ppm). In addition, the “1 ppm gall ratings” value in the series with Meloidogyne incognita [4] (Table 1B test a) was 0.67; with Meloidogyne incognita [4] (Table 1B test b), 1 (1=6-20%); in the series with Meloidogyne incognita [4] (Table 1B test c), 1.33; with Meloidogyne incognita [4] (Table 1B test d), 1.33; in the series on Meloidogyne incognita [4] (Table 1B test e) it was 1 (1=6-20%). For the same compound, the “1 ppm gall rating” value is given as 1.33 in the series with Meloidogyne incognita [4] (Table 1C test a); 1 (1=6-20%) in the series on Meloidogyne incognita [4] (Table 1C test b); 0.67^c in the series with Meloidogyne incognita [4] (Table 1C test c); 1.33^a, in the series with Meloidogyne incognita [4] (Table 1D test a); 1^b (1=6-20%) in the series on Meloidogyne incognita [4] (Table 1D test b).

With `Fc1ccc(-c2cnc(-c3cccs3)o2)cc1` [compound 4775], the entries for the “Number of nematodes recovered from treated soil after 3 days incubation with the compound” value in series [5] (2 kg/ha), in [5] (4 kg/ha) and in series [5] (10 kg/ha) were 15, 7 and 4, respectively. In addition, the “mortality, signs of gross toxicity and behavioral changes” value in series [6] is “all animals survived, gained body weight, and appeared active and healthy”. In addition, the “percent control (galling reduction) relative to the control blank treatment” value in [7] is 77%. The “8 ppm gall ratings” value with Meloidogyne incognita [4] (8 ppm, average of triplicate gall rating, scale 0-3 (% root mass galled)) was 0 (0=0-5%).

As for `Fc1cc(Cl)ccc1-c1cnc(-c2cccs2)o1` [compound 5915], in the series on root knot nematode, the pest or weed control at 4000 g/ha is 70% and the pest or weed control at 8000 g/ha was 99%. Also, the “induction of caspase-3 (apoptosis marker)” value in series [8] was “no induction of caspase-3”. The “1 ppm gall ratings” value in the series on Meloidogyne incognita [4] (Table 1B test e) is 0.33^e.

Regarding `Cc1cc(Cl)ccc1-c1nsc(-c2ccco2)n1` [compound 5938], in the series on Meloidogyne incognita [1], the “0-3 vigor 16 DAP” value worked out at 2.5, the “0-3 vigor 21 DAP” value is reported as 2.7, the “feeder root (3 = ave) 31 DAP” value is 2.7 and the “gall % 31 DAP” value was 9%. In the series on Meloidogyne incognita [1], the “root wgt (g) 31 DAP” value was found to be 24.1 g, the “top wgt (lbs) 31 DAP” value worked out at 1.60 lbs and the “total fruit (lbs)” value was 1.22 lbs. Besides, the “control of M. incognita (in words)” value in the series on Meloidogyne incognita [1] (PPI application at 4 kg/ha) is “excellent control”. For the same compound, in the series on root knot nematode, the pest or weed control at 4000 g/ha came out at 90% and the pest or weed control at 8000 g/ha is 100%. For the same compound, the “induction of caspase-3 (apoptosis marker)” value in series [8] is “no induction of caspase-3”. Also, in the series on Meloidogyne incognita [4] (Table 1B test e), the “1 ppm gall ratings” value is 0.67^e.
